Data from US11345912B2, “Directed evolution of multivalent glycopeptides that tightly bind to target proteins” (Brandeis University, priority 2013, dated 2022).
*1 amine or outer side, *2 acyl side, *3 side chain or, on linkers, in order; H or OH if unused. Where a SMILES comes first, the peptide text is derived from it. [ ]: non-standard residue; d: D form. The star is where a group is joined. X1 = O=C([C@H](CCc1cn(C2CCC(OC3O[C@H](CO[C@H]4O[C@H](CO[C@H]5O[C@H](CO)[C@@H](O)[C@H](O)[C@@H]5O[C@H]5O[C@H](CO)[C@@H](O)[C@H](O)[C@@H]5O)[C@@H](O)[C@H](O[C@H]5O[C@H](CO)[C@@H](O)[C@H](O)[C@@H]5O[C@H]5O[C@H](CO)[C@@H](O)[C@H](O)[C@@H]5O)[C@@H]4O)[C@@H](O)[C@H](O[C@H]4O[C@H](CO)[C@@H](O)[C@H](O)[C@@H]4O[C@H]4O[C@H](CO)[C@@H](O)[C@H](O)[C@@H]4O[C@H]4O[C@H](CO)[C@@H](O)[C@H](O)[C@@H]4O)[C@@H]3O)CC2)nn1)N[*:1])[*:2]; For = O=C*

Test system: 2G12
Experiment: Binding curve and KD determination of 2G12-glycopeptide interaction (radiolabeled glycopeptide, protein G magnetic bead capture, scintillation counting)
Outline: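 Radiolabeled glycopeptide (<4 pmol) from PURE-system translation with click glycosylation was incubated with 100 nM 2G12 at room temperature. Complexes were captured on protein G beads and eluted at 70° C. Bound and unbound fractions were counted by scintillation, run at least in triplicate, and KD derived from binding curves.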

| Structure (SMILES) | Fmax [%] (Table 4, maximal fraction bound from curve fit, error = standard error of fit) | Kd (Table 4, ribosomally translated radiolabeled glycopeptide with His6/FLAG tag, room temperature, fit Fbound=(Fmax[2G12])/(KD+[2G12]), error = standard error of fit) [nM] | Fmax [%] (Table 6 mutational analysis, radioactive bead binding assay) | Kd (Table 6 mutational analysis, radioactive bead binding assay, ribosomally translated) [nM] | binding to 2G12 after truncation (in words) (truncated clones, Table 6) |
| --- | --- | --- | --- | --- | --- |
| CC[C@H](C)[C@H](NC(=O)[C@@H](NC(=O)[C@@H](NC(=O)[C@H](Cc1c[nH]cn1)NC(=O)[C@H](CC(N)=O)NC(=O)[C@H](CC(=O)O)NC(=O)[C@H](CCc1cn(C2CCC(OC3O[C@H](CO[C@H]4O[C@H](CO[C@H]5O[C@H](CO)[C@@H](O)[C@H](O)[C@@H]5O[C@H]5O[C@H](CO)[C@@H](O)[C@H](O)[C@@H]5O)[C@@H](O)[C@H](O[C@H]5O[C@H](CO)[C@@H](O)[C@H](O)[C@@H]5O[C@H]5O[C@H](CO)[C@@H](O)[C@H](O)[C@@H]5O)[C@@H]4O)[C@@H](O)[C@H](O[C@H]4O[C@H](CO)[C@@H](O)[C@H](O)[C@@H]4O[C@H]4O[C@H](CO)[C@@H](O)[C@H](O)[C@@H]4O[C@H]4O[C@H](CO)[C@@H](O)[C@H](O)[C@@H]4O)[C@@H]3O)CC2)nn1)NC(=O)[C@@H](NC(=O)[C@H](CCCCN)NC(=O)[C@H](CCC(=O)O)NC(=O)[C@H](CCCNC(=N)N)NC(=O)[C@H](CCCCN)NC(=O)[C@H](CS)NC(=O)[C@H](CC(N)=O)NC(=O)[C@@H](NC(=O)[C@H](CCCCN)NC(=O)[C@@H](NC(=O)[C@H](C)NC(=O)[C@H](CCc1cn(C2CCC(OC3O[C@H](CO[C@H]4O[C@H](CO[C@H]5O[C@H](CO)[C@@H](O)[C@H](O)[C@@H]5O[C@H]5O[C@H](CO)[C@@H](O)[C@H](O)[C@@H]5O)[C@@H](O)[C@H](O[C@H]5O[C@H](CO)[C@@H](O)[C@H](O)[C@@H]5O[C@H]5O[C@H](CO)[C@@H](O)[C@H](O)[C@@H]5O)[C@@H]4O)[C@@H](O)[C@H](O[C@H]4O[C@H](CO)[C@@H](O)[C@H](O)[C@@H]4O[C@H]4O[C@H](CO)[C@@H](O)[C@H](O)[C@@H]4O[C@H]4O[C@H](CO)[C@@H](O)[C@H](O)[C@@H]4O)[C@@H]3O)CC2)nn1)NC=O)[C@@H](C)O)[C@@H](C)O)[C@@H](C)O)C(C)C)[C@@H](C)O)C(=O)N[C@@H](CCc1cn(C2CCC(OC3O[C@H](CO[C@H]4O[C@H](CO[C@H]5O[C@H](CO)[C@@H](O)[C@H](O)[C@@H]5O[C@H]5O[C@H](CO)[C@@H](O)[C@H](O)[C@@H]5O)[C@@H](O)[C@H](O[C@H]5O[C@H](CO)[C@@H](O)[C@H](O)[C@@H]5O[C@H]5O[C@H](CO)[C@@H](O)[C@H](O)[C@@H]5O)[C@@H]4O)[C@@H](O)[C@H](O[C@H]4O[C@H](CO)[C@@H](O)[C@H](O)[C@@H]4O[C@H]4O[C@H](CO)[C@@H](O)[C@H](O)[C@@H]4O[C@H]4O[C@H](CO)[C@@H](O)[C@H](O)[C@@H]4O)[C@@H]3O)CC2)nn1)C(=O)N[C@@H](CCCNC(=N)N)C(=O)N[C@@H](CO)C(=O)N[C@H](C(=O)N1CCC[C@H]1C(=O)N[C@@H](Cc1c[nH]c2ccccc12)C(=O)N[C@@H](Cc1ccc(O)cc1)C(=O)N[C@H](C(=O)N[C@@H](Cc1ccc(O)cc1)C(=O)N[C@@H](CCCNC(=N)N)C(=O)N[C@@H](Cc1c[nH]c2ccccc12)C(=O)N[C@@H](CC(C)C)C(=O)N1CCC[C@H]1C(=O)N[C@@H](CC(N)=O)C(=O)NCC(=O)N[C@@H](CO)C(=O)NCC(=O)N[C@@H](CO)C(=O)N[C@@H](CC(C)C)C(=O)NCC(=O)N[C@@H](Cc1c[nH]cn1)C(=O)N[C@@H](Cc1c[nH]cn1)C(=O)N[C@@H](Cc1c[nH]cn1)C(=O)N[C@@H](Cc1c[nH]cn1)C(=O)N[C@@H](Cc1c[nH]cn1)C(=O)N[C@@H](Cc1c[nH]cn1)C(=O)N[C@@H](CCCNC(=N)N)C(=O)N[C@@H](CC(=O)O)C(=O)N[C@@H](Cc1ccc(O)cc1)C(=O)N[C@@H](CCCCN)C(=O)N[C@@H](CC(=O)O)C(=O)N[C@@H](CC(=O)O)C(=O)N[C@@H](CC(=O)O)C(=O)N[C@@H](CC(=O)O)C(=O)N[C@@H](CCCCN)C(=O)O)[C@@H](C)O)[C@@H](C)CC (some centres unmarked) [Clone 10V1, XATKTNCKREKTXDNHVTIXRSIPWYTYRWLPN] | 97 ± 2.1 | 1.9 ± 0.17 | – | – | – |
| CC[C@H](C)[C@H](NC(=O)[C@H](CO)NC(=O)[C@H](CCCNC(=N)N)NC(=O)[C@H](CCc1cn(C2CCC(OC3O[C@H](CO[C@H]4O[C@H](CO[C@H]5O[C@H](CO)[C@@H](O)[C@H](O)[C@@H]5O[C@H]5O[C@H](CO)[C@@H](O)[C@H](O)[C@@H]5O)[C@@H](O)[C@H](O[C@H]5O[C@H](CO)[C@@H](O)[C@H](O)[C@@H]5O[C@H]5O[C@H](CO)[C@@H](O)[C@H](O)[C@@H]5O)[C@@H]4O)[C@@H](O)[C@H](O[C@H]4O[C@H](CO)[C@@H](O)[C@H](O)[C@@H]4O[C@H]4O[C@H](CO)[C@@H](O)[C@H](O)[C@@H]4O[C@H]4O[C@H](CO)[C@@H](O)[C@H](O)[C@@H]4O)[C@@H]3O)CC2)nn1)NC=O)C(=O)N1CCC[C@H]1C(=O)N[C@@H](Cc1c[nH]c2ccccc12)C(=O)N[C@@H](Cc1ccc(O)cc1)C(=O)N[C@H](C(=O)N[C@@H](Cc1ccc(O)cc1)C(=O)N[C@@H](CCCNC(=N)N)C(=O)N[C@@H](Cc1c[nH]c2ccccc12)C(=O)N[C@@H](CC(C)C)C(=O)N1CCC[C@H]1C(=O)N[C@@H](CC(N)=O)C(=O)NCC(=O)N[C@@H](CO)C(=O)NCC(=O)N[C@@H](CO)C(=O)N[C@@H](CC(C)C)C(=O)NCC(=O)N[C@@H](Cc1c[nH]cn1)C(=O)N[C@@H](Cc1c[nH]cn1)C(=O)N[C@@H](Cc1c[nH]cn1)C(=O)N[C@@H](Cc1c[nH]cn1)C(=O)N[C@@H](Cc1c[nH]cn1)C(=O)N[C@@H](Cc1c[nH]cn1)C(=O)N[C@@H](CCCNC(=N)N)C(=O)N[C@@H](CC(=O)O)C(=O)N[C@@H](Cc1ccc(O)cc1)C(=O)N[C@@H](CCCCN)C(=O)N[C@@H](CC(=O)O)C(=O)N[C@@H](CC(=O)O)C(=O)N[C@@H](CC(=O)O)C(=O)N[C@@H](CC(=O)O)C(=O)N[C@@H](CCCCN)C(=O)O)[C@@H](C)O (some centres unmarked) [Clone 10V1-Δ19, XRSIPWYTYRWLPN] (For-[X1]RSIPWYTYRWLPNGSGSLGHHHHHHRDYKDDDDK-OH; C-terminus assumed) | – | – | 20 | ~7.5 | tight binding |
